The structures appear in SMILES notation.

Results on seven compounds are retold here after US7439372B2, “Therapeutic compounds” (Allergan, Inc., priority 2006, dated 2008).

One test addresses T1, hEP2/Gqs5 (Homo sapiens, UniProt P43116).
T1 construct: expressed in transfected cells; host or cells: HEK-293(EBNA)
Description: FLIPR calcium signal, HEK-293(EBNA) cells expressing hEP2/Gqs5. It is filed as cell-based. The following applies: value outside parentheses, read-out: Ca2+ Signal-EC50(nM) EP2. The method, then:
(§1) HEK-293(EBNA) cells, stably expressing one type or subtype of recombinant human prostaglandin receptors (prostaglandin receptors expressed: hDP/Gqs5; hEP1; hEP2/Gqs5; hEP3A/Gqi5; hEP4/Gqs5; hFP; hIP; hTP), were cultured in 100 mm culture dishes in high-glucose DMEM medium containing 10% fetal bovine serum, 2 mM l-glutamine, 250 µg/ml geneticin (G418) and 200 μg/ml hygromycin B as selection markers, and 100 units/ml penicillin G, 100 µg/ml streptomycin and 0.25 μg/ml amphotericin B.
(§2) Cells were seeded at a density of 5×10^4 cells per well in Biocoat® Poly-D-lysine-coated black-wall, clear-bottom 96-well plates (Becton-Dickinson) and allowed to attach overnight in an incubator at 37° C. Cells were then washed two times with HBSS-HEPES buffer (Hanks Balanced Salt Solution without bicarbonate and phenol red, 20 mM HEPES, pH 7.4) using a Denley Cellwash plate washer (Labsystems). After 45 minutes of dye-loading in the dark, using the calcium-sensitive dye Fluo-4 […] at a final concentration of 2 μM, plates were washed four times with HBSS-HEPES buffer to remove excess dye leaving 100 μl in each well. Plates were re-equilibrated to 37° C. for a few minutes.
(§3) Cells were excited with an Argon laser at 488 nm, and emission was measured through a 510-570 nm bandwidth emission filter (FLIPR™, Molecular Devices, Sunnyvale, Calif.). Drug solution was added in a 50 µl volume to each well to give the desired final concentration. The peak increase in fluorescence intensity was recorded for each well. On each plate, four wells each served as negative (HBSS-HEPES buffer) and positive controls (standard agonists: BW245C (hDP); PGE2 (hEP1; hEP2/Gqs5; hEP3A/Gqi5; hEP4/Gqs5); PGF2α (hFP); carbacyclin (hIP); U-46619 (hTP), depending on receptor). The peak fluorescence change in each drug-containing well was then expressed relative to the controls.
(§4) Compounds were tested in a high-throughput (HTS) or concentration-response (CoRe) format. In the HTS format, forty-four compounds per plate were examined in duplicates at a concentration of 10^−5 M. To generate concentration-response curves, four compounds per plate were tested in duplicates in a concentration range between 10^−5 and 10^−11 M. The duplicate values were averaged. In either, HTS or CoRe format each compound was tested on at least 3 separate plates using cells from different passages to give an n≧3.

The target in a further test is T2, hEP4/Gqs5 (Homo sapiens, UniProt P35408).
T2 construct: expressed in transfected cells; host or cells: HEK-293(EBNA)
Description: FLIPR calcium signal, HEK-293(EBNA) cells expressing hEP4/Gqs5. It is filed as cell-based. The conditions noted are these: for EC50: read-out: Ca2+ Signal-EC50(nM) EP4. The method, then: as §1, §2, §3, §4

In test [1] the target is T3, EP2 (Homo sapiens, UniProt P43116). Description: Competition binding, [3H]PGE2, HEK 293 cells stably expressing human EP2 receptors. On the set-up: expressed in transfected cells; host or cells: HEK 293. The conditions noted are these: [3H]PGE2 competition. The procedure: Competition binding experiments were performed in a medium containing Hank's balanced salt solution, Hepes 20 mM, pH 7.3, membranes (˜60 μg protein) or 2×10^5 cells from HEK 293 cells stably expressing human EP2 receptors, [^3H]PGE2 (10 nM) and various concentrations of test compounds in a total volume of 300 μl. Reaction mixtures were incubated at 23° C. for 60 min, and were filtered over Whatman GF/B filters under vacuum. Filters were washed three times with 5 ml ice-cold buffer containing 50 mM Tris/HCl (pH 7.3). Non-specific binding was estimated in the presence of excess unlabeled PGE2 (10 μM). Binding data fitted to the binding model for a single class of binding sites, using nonlinear regression analysis. IC50 values thus obtained were converted to Ki using the equation of Ki=(IC50/(1+[L]/KD) where [L] represents PGE2 concentration (10 nM) and KD the dissociation constant for [3H]PGE2 at human EP2 receptors (40 nM).
HEK-293 cells stably expressing the human or feline FP receptor, or EP1, EP2, or EP4 receptors were washed with TME buffer, scraped from the bottom of the flasks, and homogenized for 30 sec using a Brinkman PT 10/35 polytron. TME buffer was added to achieve a final 40 ml volume in the centrifuge tubes (the composition of TME is 100 mM TRIS base, 20 mM MgCl2, […]; 10N HCl is added to achieve a pH of 7.4).
The cell homogenate was centrifuged at 19000 r.p.m. for 20 min at 4° C. using a Beckman Ti-60 rotor. The resultant pellet was resuspended in TME buffer to give a final 1 mg/ml protein concentration, as determined by Biorad assay. Radioligand binding competition assays vs. [^3H-]17-phenyl PGF2α (5 nM) were performed in a 100 μl volume for 60 min. Binding reactions were started by adding plasma membrane fraction. The reaction was terminated by the addition of 4 ml ice-cold TRIS-HCl buffer and rapid filtration through glass fiber GF/B filters using a Brandel cell harvester. The filters were washed 3 times with ice-cold buffer and oven dried for one hour.
[^3H-]PGE2 (specific activity 180 Ci mmol) was used as the radioligand for EP receptors. [^3H]17-phenyl PGF2α was employed for FP receptor binding studies. Binding studies employing EP1, EP2, EP4 and FP receptors were performed in duplicate in at least three separate experiments. A 200 μl assay volume was used. Incubations were for 60 min at 25° C. and were terminated by the addition of 4 ml of ice-cold 50 mM TRIS-HCl, followed by rapid filtration through Whatman GF/B filters and three additional 4 ml washes in a cell harvester (Brandel). Competition studies were performed using a final concentration of 5 nM [^3H]-PGE2, or 5 nM [^3H] 17-phenyl PGF2α and non-specific binding determined with 10^−5M of unlabeled PGE2, or 17-phenyl PGF2α, according to receptor subtype studied.

A further test has as its target T4, hTP (Homo sapiens, UniProt P21731).
T4 construct: expressed in transfected cells; host or cells: HEK-293(EBNA)
T4 sequence (P21731 1-343): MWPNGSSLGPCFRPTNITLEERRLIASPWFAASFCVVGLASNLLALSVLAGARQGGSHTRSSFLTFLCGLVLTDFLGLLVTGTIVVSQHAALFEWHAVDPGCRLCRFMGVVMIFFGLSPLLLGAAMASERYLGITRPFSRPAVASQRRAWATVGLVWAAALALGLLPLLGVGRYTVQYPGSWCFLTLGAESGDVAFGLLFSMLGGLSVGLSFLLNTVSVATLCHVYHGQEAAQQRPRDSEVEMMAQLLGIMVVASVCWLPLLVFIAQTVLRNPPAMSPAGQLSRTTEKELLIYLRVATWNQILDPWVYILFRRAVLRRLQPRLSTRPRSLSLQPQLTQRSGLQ
Description: FLIPR calcium signal, HEK-293(EBNA) cells expressing hTP. It is filed as cell-based. The procedure: as §1, §2, §3, §4

Test [2] deals with T3, EP2. Description: cAMP measurement, EP2 (data in parentheses). It counts as cell-based. The following applies: data in parentheses refer to cAMP measurement.
In another test the target is T5, hIP (Homo sapiens, UniProt P43119).
T5 construct: expressed in transfected cells; host or cells: HEK-293(EBNA)
Description: FLIPR calcium signal, HEK-293(EBNA) cells expressing hIP. It counts as cell-based. The method, then: as §1, §2, §3, §4

T2 sequence (P35408 whole entry): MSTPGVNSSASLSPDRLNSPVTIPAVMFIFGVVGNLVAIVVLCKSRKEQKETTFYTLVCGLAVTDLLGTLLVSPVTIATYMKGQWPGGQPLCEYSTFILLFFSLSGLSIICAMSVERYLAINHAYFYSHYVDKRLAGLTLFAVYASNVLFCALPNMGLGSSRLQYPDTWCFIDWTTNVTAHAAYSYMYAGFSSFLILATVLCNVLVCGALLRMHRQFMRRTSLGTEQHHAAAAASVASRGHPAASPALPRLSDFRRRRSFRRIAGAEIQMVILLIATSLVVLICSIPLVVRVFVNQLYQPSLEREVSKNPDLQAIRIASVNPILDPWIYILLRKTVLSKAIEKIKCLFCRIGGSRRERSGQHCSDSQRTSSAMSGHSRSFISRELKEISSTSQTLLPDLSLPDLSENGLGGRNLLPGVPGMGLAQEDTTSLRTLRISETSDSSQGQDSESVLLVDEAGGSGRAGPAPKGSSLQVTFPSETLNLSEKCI
T3 sequence (P43116 whole entry): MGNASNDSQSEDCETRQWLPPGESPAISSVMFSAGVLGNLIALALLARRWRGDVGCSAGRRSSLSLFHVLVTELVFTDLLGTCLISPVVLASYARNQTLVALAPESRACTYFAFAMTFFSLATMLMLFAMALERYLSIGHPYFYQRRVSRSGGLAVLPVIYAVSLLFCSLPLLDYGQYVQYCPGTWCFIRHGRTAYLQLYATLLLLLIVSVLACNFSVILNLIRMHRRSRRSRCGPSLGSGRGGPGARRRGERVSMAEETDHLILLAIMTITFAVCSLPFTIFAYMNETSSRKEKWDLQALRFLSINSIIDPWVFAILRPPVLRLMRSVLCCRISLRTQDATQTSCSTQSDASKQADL
T1 sequence (P43116 whole entry): as above
T5 sequence (P43119 whole entry): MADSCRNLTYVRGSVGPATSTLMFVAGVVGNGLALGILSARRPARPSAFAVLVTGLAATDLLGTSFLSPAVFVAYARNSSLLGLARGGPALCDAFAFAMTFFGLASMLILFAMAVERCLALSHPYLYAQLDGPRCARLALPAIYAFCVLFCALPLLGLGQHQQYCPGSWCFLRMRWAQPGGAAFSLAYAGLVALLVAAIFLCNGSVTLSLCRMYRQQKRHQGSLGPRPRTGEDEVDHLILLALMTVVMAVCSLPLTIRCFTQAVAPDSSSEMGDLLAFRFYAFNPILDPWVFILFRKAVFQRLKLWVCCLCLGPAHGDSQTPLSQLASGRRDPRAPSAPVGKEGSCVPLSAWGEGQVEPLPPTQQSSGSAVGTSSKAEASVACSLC

In general, EC50 refers to the concentration giving half of the maximal effect. By Ki is commonly meant the dissociation constant of the complex between target and ligand, obtained from inhibition or displacement. A low value points to a stronger hold on the target. With `CCCCCC(O)c1ccc([C@H]2C(=O)CC[C@@H]2CCCc2ccc(C(=O)O)s2)cc1` (stereo partly drawn) [compound 1], the EC50 is 62 nM at hEP2/Gqs5, greater than 10000 nM on hEP4/Gqs5 and 5 nM at EP2 [2]. Moreover, the inhibitory constant (Ki) at EP2 [1] stood at 43 nM. On hTP, the “Ca2+ Signal-EC50(nM) TP” value is reported as “notactive”. At hIP, the “Ca2+ Signal-EC50(nM) IP” value is “notactive”.
In the case of `CCCCCC(O)c1ccc([C@H]2C(=O)CC[C@@H]2CCCc2ccc(C(=O)O)s2)cc1` (stereo partly drawn) [compound 2], the EC50 came to 25 nM on hEP2/Gqs5 and 9 nM at EP2 [2]. Also, on hEP4/Gqs5, the “Ca2+ Signal-EC50(nM) EP4” value is listed as “notactive”. The Ki on EP2 [1] stood at 70 nM. The “Ca2+ Signal-EC50(nM) TP” value on hTP is reported as “notactive”. Also, the “Ca2+ Signal-EC50(nM) IP” value at hIP is recorded as “notactive”.
Turning to `CCCCCC(O)c1ccc([C@@H]2[C@@H](CCCc3ccc(C(=O)O)s3)CCC2(Cl)Cl)cc1` (stereo partly drawn) [compound 3], the EC50 at hEP2/Gqs5 stood at 1620 nM; on EP2 [2] it was 3 nM. For the same compound, the “Ca2+ Signal-EC50(nM) EP4” value at hEP4/Gqs5 is “notactive”. The Ki on EP2 [1] came to 89 nM. Also, on hTP, the “Ca2+ Signal-EC50(nM) TP” value is listed as “notactive”. The “Ca2+ Signal-EC50(nM) IP” value at hIP is listed as “notactive”.
In the case of `CCCCCC(O)c1ccc([C@H]2C(=O)CC[C@@H]2C/C=C\CCCC(=O)O)cc1` (stereo partly drawn) [compound 5], the 50% effective concentration (EC50) at hEP2/Gqs5 is 381 nM; at EP2 [2], 34 nM. For the same compound, on hEP4/Gqs5, the “Ca2+ Signal-EC50(nM) EP4” value was “notactive”. The same compound registered a Ki on EP2 [1] of 1050 nM. The “Ca2+ Signal-EC50(nM) TP” value on hTP is reported as “notactive”. In addition, the “Ca2+ Signal-EC50(nM) IP” value at hIP is “notactive”.
Consider `CCCCCC(O)c1ccc([C@@H]2[C@@H](C/C=C\CCCC(=O)O)CC[C@H]2Cl)cc1` (stereo partly drawn) [compound 6], for which the EC50 on hEP2/Gqs5 is 731 nM; on EP2 [2], 94 nM. The “Ca2+ Signal-EC50(nM) EP4” value on hEP4/Gqs5 is recorded as “notactive”. For the same compound, on EP2 [1], the Ki turned out to be 401 nM. Besides, the “Ca2+ Signal-EC50(nM) TP” value on hTP is “notactive”. Moreover, the “Ca2+ Signal-EC50(nM) IP” value on hIP is “notactive”.
`CCCCCC(O)c1ccc([C@@H]2[C@@H](C/C=C\CCCC(=O)O)CC[C@H]2O)cc1` (stereo partly drawn) [compound 7]: the EC50 was 2510 nM on hEP2/Gqs5, greater than 10000 nM at hEP4/Gqs5 and 73 nM on EP2 [2]. In addition, at EP2 [1], the inhibition constant (Ki) was determined as 2310 nM. Besides, the “Ca2+ Signal-EC50(nM) TP” value on hTP is “notactive”. The “Ca2+ Signal-EC50(nM) IP” value at hIP is reported as “notactive”.
`CCCCCC(O)c1ccc([C@H]2C(=O)C=C[C@@H]2CCCc2ccc(C(=O)O)s2)cc1` (stereo partly drawn) [compound 11]: the concentration for a half-maximal effect (EC50) at hEP2/Gqs5 is 208 nM; on hEP4/Gqs5, greater than 10000 nM; on EP2 [2], 9 nM. The compound further yielded a Ki at EP2 [1] of 173 nM. For the same compound, the “Ca2+ Signal-EC50(nM) TP” value at hTP is “notactive”. For the same compound, on hIP, the “Ca2+ Signal-EC50(nM) IP” value is listed as “notactive”.
